16 molecules from PubChem BioAssay (NCI) can be followed below.

Test in all cases: NCI tumour cell line growth inhibition, 48 h
Assay [1] has as its system KM20L2 colon.
The subject of assay [2] is HOP-18 NSCLC.
For assay [3], the system named is DMS 114 small cell lung.
Assay [4] relates to DMS 273 small cell lung.
The subject of assay [5] is RXF-631 renal.
Assay [6] deals with XF 498 CNS.
In assay [7] the test system is LXFL 529 NSCLC.
Assay [8] has as its system MDA-MB-435.
In assay [9] the test system is MDA-N.
The test system of assay [10] is P388 leukemia.

Molecules are shown by their SMILES. Several values for one entry are separate records, joined by “and”; a condition that tells them apart may be missing. Identical values can stand only once.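 Interpolation was linear, between the two tested concentrations surrounding the appropriate level; five concentrations were tested over 48 hours in 96-well plates. GI50 is the concentration that inhibits growth by half. TGI marks complete inhibition of growth.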

`CCOc1ccccc1NC(=O)C(=O)Cc1nc2ccccc2s1`: the TGI in assay [1], in [2], in [3], in assay [4], in assay [5] and in assay [6] was greater than 100 µM in each case. Further, the TGI in [7] is greater than 100 µM.

As to `[F][Sn]([F])([c]1ccccc1)[c]1ccccc1`, the GI50 is 1.87 µM in [1]; 2.08 µM in assay [2]; 2 µM in assay [3]; 2.17 µM in assay [4]; 2.3 µM in [5]; 1.99 µM in assay [6]. Besides, the GI50 in assay [7] was 0.815 µM. The TGI in assay [1] worked out at 3.39 µM; in [2], 3.59 µM; in assay [3], 5.8 µM; in [4] it was 5.26 µM; in [5], 6.01 µM; in [6], 3.45 µM. Moreover, the TGI in assay [7] was found to be 2.08 µM.

In the case of `CC1=C(C(=O)Nc2ccccc2)C(c2ccc(C3C(C(=O)Nc4ccccc4)=C(C)NC(C)=C3C(=O)Nc3ccccc3)cc2)C(C(=O)Nc2ccccc2)=C(C)N1`, the TGI in assay [1] amounted to 4.94 µM; in assay [2], 21.7 µM; in assay [3] it was 17.8 µM; in assay [8] it was 5.83 µM; in assay [4], 7.24 µM; in [9], 14.5 µM. Further, the TGI in assay [6] stood at 20.5 µM; in assay [7] it was 5.34 µM.

Regarding `CCN(CC)CCNC(=O)c1ccc(C)c(OCc2ccccc2)c1[N+](=O)[O-]`, the TGI is 64.5 µM in [1]; greater than 100 µM in assay [2]; greater than 65.7 µM in assay [3]; 46.9 µM in assay [4]; 38.3 µM in [9]; 39.7 µM in assay [6]. The molecule further had a TGI in assay [7] of 33.9 µM.

`CC(C)(C)OC(=O)N1N=NC2C1C1CC(OCc3ccccc3)(OCc3ccccc3)C2O1` (configuration not stated): the TGI was greater than 100 µM in assay [1]; greater than 100 µM in [2]; 40.6 µM in [3]; greater than 100 µM in assay [4]; greater than 100 µM in assay [5]; 30.3 µM in [6]. Also, the TGI in [7] stood at 35 µM.

In the case of `COC(=O)c1cccc2cccc(C(=O)Nc3ccc(Cl)cc3)c12`, the TGI in assay [1] is greater than 100 µM; in assay [2], greater than 100 µM; in [3], greater than 100 µM; in assay [4], 22.2 µM; in assay [5] it was greater than 100 µM; in assay [6], greater than 100 µM. This molecule displayed a TGI in assay [7] greater than 100 µM.

On to `N#CC(C(=O)CCC(=O)Nc1cccc(C(F)(F)F)c1)c1ccc(Cl)cc1` (configuration not stated), for which the TGI in [1], in assay [2], in [4], in assay [5], in assay [6] and in assay [7] was greater than 100 µM in each case.

Consider `CC1=C(c2cc(C(=O)Nc3ccc(Cl)cc3)nc(=S)[nH]2)Sc2ccccc2N1`, for which the TGI in assay [1], in assay [2], in assay [3], in assay [4], in assay [5] and in assay [6] was greater than 100 µM each time. Moreover, the TGI in assay [7] is greater than 100 µM.

As to `Cc1cccc(C(C)C)c1NC(=O)C(=O)C(C(=O)c1ccccc1F)C1OC(=O)c2ccccc21` (configuration not stated), the TGI in [1] was determined as 76.5 µM; in [2], 32.4 µM; in assay [3] it was 36.1 µM; in assay [4], 44.3 µM; in assay [5] it was 60.3 µM; in assay [6], 23.3 µM. This molecule also returned a TGI in [7] of 27.4 µM.

With `O=C(O)CSc1n[nH]c(Cc2ccccc2)n1`, the TGI in assay [2], in assay [3], in assay [5], in assay [6] and in assay [7] was greater than 100 µM each time.

As for `O=C(O)CN(c1ccccc1)S(=O)(=O)c1ccc([N+](=O)[O-])cc1`, the TGI in [1], in [2], in [4], in [5], in assay [6] and in [7] was greater than 100 µM throughout.

As for `COc1cc(C2C(C(=O)Nc3cc(F)c(F)cc3F)=C(C)NC(C)=C2C(=O)Nc2cc(F)c(F)cc2F)ccc1O`, the TGI in [1] was greater than 100 µM; in [3], 41.8 µM; in [5], 37.9 µM; in assay [6] it was 33.1 µM; in assay [7], greater than 100 µM.

With `O=c1[nH]c(=O)n([C@H]2CCCO2)cc1F`, the TGI was 565 µM in assay [10], greater than 5000 µM in [8] and greater than 5000 µM in assay [9]. Also, the GI50 in assay [8] was 1350 µM; in [9], 357 µM.

For `CCOC(=O)/C(=C/c1cccc(C#N)c1)N(CC)CC`, the TGI in [2], in assay [3], in assay [5], in [6] and in assay [7] was greater than 100 µM each time.

In the case of `CC1=C(C(=O)NNS(=O)(=O)c2ccc(C)cc2)CC(C(=O)NNS(=O)(=O)c2ccc(C)cc2)=C(C)N1`, the TGI in [1], in assay [2], in assay [3], in [5], in [6] and in [7] was greater than 100 µM each time.

Take `CCOc1ccccc1NC(=O)C(C#N)C1=C(Cl)C(=O)c2ccccc2C1=O` (configuration not stated): the GI50 in [1] is 17.7 µM; in assay [3], 1.66 µM; in assay [5], 6.8 µM; in assay [6], 1.83 µM. Besides, the TGI in assay [2] was 2.85 µM; in assay [3] it was 2.16 µM and 3.85 µM; in [4], 3.35 µM and 3.47 µM; in [5], 4.03 µM and 26.2 µM; in [6], 3.75 µM and 3.24 µM; in [7] it was 3.25 µM and 3.16 µM.
